Results published in patent US12636340B2, “Methods of treating multiple myeloma” (ONYX PHARMACEUTICALS, INC., priority 2020, dated 2026).

Assay type: in vivo
Conditions: both treatment groups together
Method: Key exclusion criteria related to significant baseline pulmonary and cardiac disease, including uncontrolled hypertension (defined as an average systolic blood pressure >159 mmHg or diastolic >99 mmHg despite optimal treatment). Analysis of LVEF changes over time was conducted. Long-term corticosteroid treatment equivalent to a dexamethasone dose of 4.0 mg/day or prednisone at a dose of >20 mg/day was not permitted while receiving study treatment. Corticosteroids administered short-term (up to 2 weeks) were permitted, provided the cumulative dose was less than a 40 mg per week dexamethasone equivalent.
Randomization was performed using an interactive voice or web response system. […]
Statistical analysis: Efficacy evaluations were based on the intention-to-treat population. […] For primary and key secondary endpoints, response and disease progression were determined by a blinded Independent Review Committee. Additionally, they were determined locally by investigators in an unblinded manner and centrally by the sponsor using a validated computer algorithm, which served as sensitivity analysis of PFS.
Descriptive statistics identified the extent of missing data. […] For patients who died on study, the death date was recorded on the end of study CRF page at the end of the study date. […]

CC(C)C[C@H](NC(=O)[C@H](CCc1ccccc1)NC(=O)CN1CCOCC1)C(=O)N[C@@H](Cc1ccccc1)C(=O)N[C@@H](CC(C)C)C(=O)[C@@]1(C)CO1 [carfilzomib]
patients who discontinued carfilzomib due to AEs, overall: 21.3%
